# Results published in patent US20100227896A1, “USE OF VITAMIN PP COMPOUNDS” (ASTELLAS DEUTSCHLAND GMBH, priority 1998, published 2010).
# pIC50: −log10 of the molar value. Like-named read-outs stand apart in the source and are kept apart here.
# Columns and labels:
# [1] = test system: THP-1 cells; assay: Growth inhibition of THP-1 human leukaemia cells (WST-1 reagent, four days incubation); type: cell-based; details: for pIC50: Homo sapiens; for effect on the growth-inhibiting effect of K22.097: THP-1 cells, summary of Table 1
# Method: THP-1 cells derived from a human monocytic leukaemia plated at a density of 200,000 cells/ml in 96-well plastic dishes. Cultivation occurred in RPMI 1640 nutrient medium with 10% foetal calf serum (FCS) in a tissue culture incubator with a gas mixture of 5% CO2 and 95% air at a temperature of 37° C. For the individual concentrations and the controls without test substances as well as for the background with nutrient medium but without cells, three-fold batches were done for each. After four days of substance incubation 20 μl WST-1 reagent (Boehringer Mannheim) was respectfully pipetted in each individual well. After 30 to 60 minute incubation in the tissue culture incubator at 37° C. and 5% CO2, the light extinction was measured in an ELISA reader at 450 nm wave length. The backgrounds were each subtracted from the typical measured valves. (The IC50-values (defined as that concentration in which the cell growth was inhibited by 50%) was taken from the dose-response curves and given as a comparative measurement for the activity of the test compounds.
# Furthermore, the anti-tumor substance Nr.159 with the internal label K22.175 according to the publication PCT/EP97/03245=WO97/48696 in the form of N-[4-(1-benzoylpiperidin-4-yl)-butyl]-3-(pyridin-3-yl)-acrylamide synthesized by the applicant was included in the experimental examinations. The results obtained therefrom confirm the above described finding on the useful effect according to the invention of the vitamin PP compounds.
# [2] = test system: lymphocytes; assay: Vitality of freshly isolated spleen lymphocytes (flow cytometry, propidium iodide / 3,3'-dihexyloxacarbocyanin iodide, 2 days); type: cell-based, Swiss mouse; details: Mus musculus, Lymphocyte
# Excerpt: Many cytostatic agents and radiation therapies as well have a cytcotoxic effect not only on tumor cells but also on the blood cell system. This leads to a weakening of the immune defence which can lead to life threatening infections. In addition, this can result in a so-called tumor lyse syndrome which can, lead to the death of the patient by the relatively quick death of large cell masses. In order to test the possibility for a therapeutical use of nicotinic acid and/or nicotinamide for preventing such life threatening conditions by massive cell death, the effect of the substance was tested on freshly isolated lymphocytes as follows:
# The spleen of a Swiss mouse served as a lymphocyte source.
# The lymphocyte population was isolated from the spleen cell suspension over a ficoll gradient and taken up in IMEM-ZO culture medium with 0,1% dextran 70,000 and 2% foetal calf serum. […] Subsequently, 10,000 cells per each sample were measured on a flow-through cytometer and the percentage amount of vital cells in the population was determined. By means of the dose-response curves, IC50-values were calculated which were also employed in the following Tables for the characterization of the individual substances: […]
# [3] = test system: Cryptic cells of the large intestine; assay: Growth/vitality of primary cryptic cells of the large intestine (crystal violet, MTT-test, 4 days treatment); type: cell-based
# Excerpt: Cryptic cells of the large intestine were isolated according to the method of Booth et al. (1995) with slight modifications. The removed large intestine was cut into pieces, the parts were finally cut after several-fold washing and digested with collagenase and dispase. Subsequently, the larger tissue pieces remaining in the suspension were sedimented, the supernatant was decanted and stored. The pellet was digested again under vigorous shaking with medium in order to release additional cryptic cells. After sedimentation, the supernatant was poured off again, combined with the first fraction and the cryptic cells were centrifuged at 50×g. After a further washing step, the centrifuge cryptic cells were suspended in culture medium and seeded at a density of 800 cells per well in 24-well-cultured dishes which were previously coated with collagen. The cells were incubated at 37° C. in a saturated water vapour atmosphere with 92.5% air and 7.5% CO2. […]
# The growth of the culture was photometrically quantified after staining with crystal violet as a measure for the cell number and the vitality of the cells was determined with the MTT-test whose reaction depends on living cells with active mitochondria. Based on dose response curves, the IC50-values were calculated which are also used in the following Table 3 for characterization of the individual substance activity: […]
# [4] = test system: NMRI mice
# Method: Parallel to this, 500 mg/kg nicotinamide was simultaneously intraperitoneally administered each to the individual dosage groups. 7 days after the beginning of treatment, the blood picture of the individual animals was examined.
smiles,measurement,setting,value
"O=C(CCc1cccnc1)NCCCCC1CCN(C(c2ccccc2)c2ccccc2)CC1 [K22.097, N-[4-(1-diphenylmethylpiperidin-4-yl)-butyl]-3-(pyridin-3-yl)-propionamide]",pIC50,"[1]; THP-1, read-out: IC50-Value for K22.097, THP-1 cells, + 0.1 mM nicotinic acid",< 5.00
same,pIC50,"[1]; THP-1, read-out: IC50-Value for K22.097, THP-1 cells, + 1 mM nicotinamide",< 5.00
same,pIC50,"[1]; THP-1, read-out: IC50-Value for K22.097, THP-1 cells, K22.097 alone",8.00
same,pIC50,"[2]; read-out: IC50-Value for K22.097, mouse spleen lymphocytes, + 10 mM nicotinamide",< 6.00
same,pIC50,"[2]; read-out: IC50-Value for K22.097, mouse spleen lymphocytes, K22.097 alone",9.00
same,pIC50,"[3]; read-out: IC50-Value for K22.097, primary intestine cryptic cells, + 1 mM nicotinamide",< 5.00
same,pIC50,"[3]; read-out: IC50-Value for K22.097, primary intestine cryptic cells, K22.097 alone",7.00
same,Leukocyte number,"[4]; 2 × 100 mg/kg K22.097 orally + 2 × 500 mg/kg nicotinamide intraperitoneally, day 7","6,900 per μl"
same,Leukocyte number,"[4]; 2 × 100 mg/kg K22.097 orally over 4 days, blood picture 7 days after beginning of treatment","1,100 per μl"
same,Leukocyte number,"[4]; 2 × 120 mg/kg K22.097 orally + 2 × 500 mg/kg nicotinamide intraperitoneally, day 7","5,900 per μl"
same,Leukocyte number,"[4]; 2 × 120 mg/kg K22.097 orally over 4 days, blood picture 7 days after beginning of treatment",500 per μl
"O=C(C=Cc1cccnc1)NCCCCC1CCN(C(=O)c2ccccc2)CC1 [K22.175, N-[4-(1-benzoylpiperidin-4-yl)-butyl]-3-(pyridin-3-yl)-acrylamide]",pIC50,"[1]; THP-1, THP-1 cells, + 0.1 mM nicotinic acid, read-out: IC50-Value for K22.175",< 7.52
same,pIC50,"[1]; THP-1, THP-1 cells, + 1 mM nicotinamide, read-out: IC50-Value for K22.175",< 7.52
same,pIC50,"[1]; THP-1, THP-1 cells, K22.175 alone, read-out: IC50-Value for K22.175",9.30
"NC(=O)c1cccnc1 [nicotinamide, reference compound]",effect on the growth-inhibiting effect of K22.097,[1],abrogated
same,Leukocyte number,"[4]; mouse, in vivo, ip, 500 mg/kg","4,800 per μl"
"O=C(O)c1cccnc1 [nicotinic acid, reference compound]",effect on the growth-inhibiting effect of K22.097,[1],abrogated
